Experimental data published in US20240199613A1 (TAKEDA PHARMACEUTICAL COMPANY LIMITED, priority 2021, published 2024).

What was measured:
plasma kallikrein = biological target: T1, plasma kallikrein (Homo sapiens, UniProt P03952); test: Neat human plasma assay: contact pathway-activated (FXIIa) plasma, PFR-AMC substrate; type: biochemical; details: citrated human plasma (78% final), 10 nM human FXIIa, 100 μM PFR-AMC, room temperature
T1 construct: from tissue; host or cells: sodium citrate collected human plasma (78% final)
T1 sequence (P03952 391-638 limits assumed): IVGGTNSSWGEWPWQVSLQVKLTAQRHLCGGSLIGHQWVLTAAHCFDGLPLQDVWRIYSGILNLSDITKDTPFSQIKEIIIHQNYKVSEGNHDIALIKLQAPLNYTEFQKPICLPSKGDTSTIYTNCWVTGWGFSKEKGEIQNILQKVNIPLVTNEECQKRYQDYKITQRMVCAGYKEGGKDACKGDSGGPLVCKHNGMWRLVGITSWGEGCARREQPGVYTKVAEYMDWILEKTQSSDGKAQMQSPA
T1 sequence (P03952 20-390 partner limits assumed): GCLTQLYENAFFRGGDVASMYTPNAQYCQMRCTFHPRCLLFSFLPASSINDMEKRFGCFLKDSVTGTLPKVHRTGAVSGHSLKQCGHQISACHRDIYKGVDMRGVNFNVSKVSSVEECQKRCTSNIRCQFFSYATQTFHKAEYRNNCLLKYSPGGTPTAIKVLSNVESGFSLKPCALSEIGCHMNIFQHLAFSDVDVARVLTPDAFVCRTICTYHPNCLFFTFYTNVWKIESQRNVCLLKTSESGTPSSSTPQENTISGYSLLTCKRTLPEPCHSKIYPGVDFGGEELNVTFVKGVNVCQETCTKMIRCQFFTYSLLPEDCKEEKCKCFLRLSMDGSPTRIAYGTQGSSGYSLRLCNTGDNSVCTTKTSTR
Summary of the method: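 Compounds spiked into citrated human or rat plasma (78% final), or plasma taken from orally or IV dosed rats, activated with 10 nM human FXIIa; 100 μM PFR-AMC cleavage read at 360/480 nm for 5 min, room temperature. Rates vs concentration fit to 4-parameter IC50/IC90 equation.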

[1] = biological target: human activated kallikrein enzyme (Homo sapiens, UniProt P03952); test: Inhibition of activated plasma kallikrein, fluorogenic peptide substrate (PFR-AMC) assay, 500 pM enzyme format; type: biochemical; details: 500 pM activated kallikrein, 300 uM PFR-AMC, 30 min preincubation, 10 min reaction, room temperature; read-out: Primary Dose Response Assay: Average EC50
Chain of human activated kallikrein enzyme (P03952 391-638 limits assumed): as the sequence (P03952 391-638 limits assumed) above
Chain of human activated kallikrein enzyme (P03952 20-390 partner limits assumed): as the sequence (P03952 20-390 partner limits assumed) above
Summary of the method: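 500 pM enzyme preincubated 30 min at room temperature with inhibitor in 20 mM Tris pH 7.5, 150 mM NaCl, 1 mM EDTA, 0.1% PEG-400, 0.1% Triton X-100. Reaction started with 300 uM PFR-AMC and run 10 min at room temperature. Fluorescence read at 380 nm excitation/460 nm emission.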

`Cc1ccnc([C@H]2C[C@@H]2c2nc3cc(NCc4cn5cc(C6CC6)cc(N6CC(=O)N(C)C6=O)c5n4)cnc3c(=O)[nH]2)n1` (racemic) [Example 9, rac-1-(6-cyclopropyl-2-(((2-((1S*,2S*)-2-(4-methylpyrimidin-2-yl)cyclopropyl)-4-oxo-3,4-dihydropyrido[3,2-d]pyrimidin-7-yl)amino)methyl)imidazo[1,2-a]pyridin-8-yl)-3-methylimidazolidine-2,4-dione] gave an IC90 (plasma kallikrein) of 1.5 to 10 µM and an EC50 [1] of at most 0.001 µM.

Work on `Cc1ccnc([C@H]2C[C@@H]2c2cc(N3CCN(C)CC3)c3ccc(NCc4cn5cc(C6CC6)cc(N6CC(=O)N(C)C6=O)c5n4)cc3n2)n1` [Example 39, 1-(6-cyclopropyl-2-(((4-(4-methylpiperazin-1-yl)-2-((1S,2S)-2-(4-methylpyrimidin-2-yl)cyclopropyl)quinolin-7-yl)amino)methyl)imidazo[1,2-a]pyridin-8-yl)-3-methylimidazolidine-2,4-dione] yielded an IC90 (plasma kallikrein) of at most 0.4 µM and an EC50 [1] of at most 0.001 µM.

In the case of `COc1cc(NCc2cn3cc(C4CC4)cc(N4CC(=O)N(C)C4=O)c3n2)cc2nc([C@H]3C[C@@H]3c3nccc(C)n3)ccc12` [Example 28, 1-(6-cyclopropyl-2-(((5-methoxy-2-((1S,2S)-2-(4-methylpyrimidin-2-yl)cyclopropyl)quinolin-7-yl)amino)methyl)imidazo[1,2-a]pyridin-8-yl)-3-methylimidazolidine-2,4-dione], the IC90 (plasma kallikrein) is reported as 0.4 to 1.5 µM and the EC50 [1] is reported as at most 0.001 µM.

In the case of `Cc1ccnc([C@H]2C[C@@H]2c2ccc3ccc(N4C[C@@H](O)C[C@@H]4c4cn5cc(C6CC6)cc(N6CC(=O)N(C)C6=O)c5n4)cc3n2)n1` (relative stereo) [Example 68, rac-1-(6-cyclopropyl-2-((2R,4S)-4-hydroxy-1-(2-((1S*,2S*)-2-(4-methylpyrimidin-2-yl)cyclopropyl)quinolin-7-yl)pyrrolidin-2-yl)imidazo[1,2-a]pyridin-8-yl)-3-methylimidazolidine-2,4-dione], the IC90 (plasma kallikrein) is reported as 1.5 to 10 µM and the EC50 [1] is reported as 0.001 to 0.01 µM.

With `Cc1ccnc([C@H]2C[C@@H]2c2cc(N3CC4(COC4)C3)c3ccc(OCc4cc5cc(C6CC6)cc(N6CC(=O)N(C)C6=O)n5n4)cc3n2)n1` [Example 108, 1-(5-cyclopropyl-2-(((2-((1S,2S)-2-(4-methylpyrimidin-2-yl)cyclopropyl)-4-(2-oxa-6-azaspiro[3.3]heptan-6-yl)quinolin-7-yl)oxy)methyl)pyrazolo[1,5-a]pyridin-7-yl)-3-methyl imidazolidine-2,4-dione] the IC90 (plasma kallikrein) was at most 0.4 µM and the EC50 [1] was at most 0.001 µM.

`Cc1ccnc([C@H]2C[C@@H]2C2=NS(=O)(=O)c3ccc(NCc4cn5cc(C6CC6)ccc5n4)cc3N2)n1` (single isomer, unassigned) [Example 65] was tested, and the IC90 (plasma kallikrein) was 0.4 to 1.5 µM and the EC50 [1] was at most 0.001 µM.

`Cc1ccnc([C@H]2C[C@@H]2c2cc(OCCO)c3ccc(NCc4cn5cc(C6CC6)cc(N6CC(=O)N(C)C6=O)c5n4)cc3n2)n1` (racemic) [Example 69, rac-1-(6-cyclopropyl-2-(((4-(2-hydroxyethoxy)-2-((1S*,2S*)-2-(4-methylpyrimidin-2-yl)cyclopropyl)quinolin-7-yl)amino)methyl)imidazo[1,2-a]pyridin-8-yl)-3-methylimidazolidine-2,4-dione] gave an IC90 (plasma kallikrein) of 0.4 to 1.5 µM and an EC50 [1] of at most 0.001 µM.

`Cc1ccnc([C@H]2C[C@@H]2c2ncc3ccc(NCc4cn5cc(C6CC6)cc(N6CC(=O)N(C)C6=O)c5n4)cc3n2)n1` (racemic) [Example 60, rac-1-(6-cyclopropyl-2-(((2-((1S*,2S*)-2-(4-methylpyrimidin-2-yl)cyclopropyl)quinazolin-7-yl)amino)methyl)imidazo[1,2-a]pyridin-8-yl)-3-methylimidazolidine-2,4-dione] was tested, and the IC90 (plasma kallikrein) was 10 to 22 µM and the EC50 [1] was 0.001 to 0.01 µM.

Work on `Cc1ccnc([C@H]2C[C@@H]2c2cc(NCC(C)(C)O)c3ccc(NCc4cn5cc(C6CC6)cc(N6CC(=O)N(C)C6=O)c5n4)cc3n2)n1` [Example 38, 1-(6-cyclopropyl-2-(((4-((2-hydroxy-2-methylpropyl)amino)-2-((1S,2S)-2-(4-methylpyrimidin-2-yl)cyclopropyl)quinolin-7-yl)amino)methyl)imidazo[1,2-a]pyridin-8-yl)-3-methylimidazolidine-2,4-dione] yielded an IC90 (plasma kallikrein) of at most 0.4 µM and an EC50 [1] of at most 0.001 µM.

`Cc1ccnc([C@H]2C[C@@H]2c2ccc3ccc(NCc4cn5cc(C6CC6)cc(N6CC(=O)NC6=O)c5n4)cc3n2)n1` (racemic) [Example 81, rac-1-(6-cyclopropyl-2-(((2-((1S*,2S*)-2-(4-methylpyrimidin-2-yl)cyclopropyl)quinolin-7-yl)amino)methyl)imidazo[1,2-a]pyridin-8-yl)imidazolidine-2,4-dione] gave an IC90 (plasma kallikrein) of 1.5 to 10 µM and an EC50 [1] of at most 0.001 µM.

`CCN1CCN(c2cc(C3CC3)cn3cc(CNc4ccc5ccc([C@H]6C[C@@H]6c6nccc(C)n6)nc5c4)nc23)CC1` (racemic) [Example 74, rac-N-((6-cyclopropyl-8-(4-ethylpiperazin-1-yl)imidazo[1,2-a]pyridin-2-yl)methyl)-2-((1S*,2S*)-2-(4-methylpyrimidin-2-yl)cyclopropyl)quinolin-7-amine] gave an IC90 (plasma kallikrein) of 1.5 to 10 µM and an EC50 [1] of at most 0.001 µM.

`Cc1ccnc([C@H]2C[C@@H]2c2cc(N3CCC3)c3ccc(NCc4cn5cc(C6CC6)cc(N6CC(=O)N(C)C6=O)c5n4)cc3n2)n1` [Example 30, 1-(2-(((4-(azetidin-1-yl)-2-((1S,2S)-2-(4-methylpyrimidin-2-yl)cyclopropyl)quinolin-7-yl)amino)methyl)-6-cyclopropylimidazo[1,2-a]pyridin-8-yl)-3-methylimidazolidine-2,4-dione] was tested, and the IC90 (plasma kallikrein) was at most 0.4 µM and the EC50 [1] was at most 0.001 µM.

For `Cc1ccnc([C@H]2C[C@@H]2c2cc(N3CCS(=O)(=O)CC3)c3ccc(NCc4cn5cc(C6CC6)cc(N6CC(=O)N(C)C6=O)c5n4)cc3n2)n1` [Example 37, 1-(6-cyclopropyl-2-(((4-(1,1-dioxidothiomorpholino)-2-((1S,2S)-2-(4-methylpyrimidin-2-yl)cyclopropyl)quinolin-7-yl)amino)methyl)imidazo[1,2-a]pyridin-8-yl)-3-methylimidazolidine-2,4-dione], the IC90 (plasma kallikrein) was at most 0.4 µM and the EC50 [1] was at most 0.001 µM.

`COc1cc(NCc2cn3cc(C)cc(N4CC(=O)N(C)C4=O)c3n2)cc2nc([C@H]3C[C@@H]3c3nccc(C)n3)ccc12` (racemic) [Example 104, rac-1-(2-(((5-methoxy-2-((1S*,2S*)-2-(4-methylpyrimidin-2-yl)cyclopropyl)quinolin-7-yl)amino)methyl)-6-methylimidazo[1,2-a]pyridin-8-yl)-3-methylimidazolidine-2,4-dione] gave an IC90 (plasma kallikrein) of 0.4 to 1.5 µM and an EC50 [1] of 0.001 to 0.01 µM.

Molecule `Cc1ccnc([C@H]2C[C@@H]2C2=NS(=O)(=O)c3ccc(NCc4cn5cc(C6CC6)cc(F)c5n4)cc3N2)n1` [Example 105, 6-(((6-cyclopropyl-8-fluoroimidazo[1,2-a]pyridin-2-yl)methyl)amino)-3-((1S,2S)-2-(4-methylpyrimidin-2-yl)cyclopropyl)-4H-benzo[e][1,2,4]thiadiazine 1,1-dioxide] has an IC90 (plasma kallikrein) of at most 0.4 µM and an EC50 [1] of at most 0.001 µM.

Work on `Cc1ccnc([C@H]2C[C@@H]2c2cc(N3CC4(COC4)C3)c3ccc(NCc4cn5cc(C6CC6)cc(N6CC(=O)N(C)C6=O)c5n4)cc3n2)n1` [Example 36, 1-(6-cyclopropyl-2-(((2-((1S,2S)-2-(4-methylpyrimidin-2-yl)cyclopropyl)-4-(2-oxa-6-azaspiro[3.3]heptan-6-yl)quinolin-7-yl)amino)methyl)imidazo[1,2-a]pyridin-8-yl)-3-methylimidazolidine-2,4-dione] yielded an IC90 (plasma kallikrein) of at most 0.4 µM and an EC50 [1] of at most 0.001 µM.

Work on `Cc1ccnc([C@H]2C[C@@H]2c2cc(O)c3ccc(N4C[C@@H](O)C[C@@H]4c4cn5cc(C6CC6)ccc5n4)cc3n2)n1` (relative stereo) [Example 54, rac-7-((2R,4S)-2-(6-cyclopropylimidazo[1,2-a]pyridin-2-yl)-4-hydroxypyrrolidin-1-yl)-2-((1S*,2S*)-2-(4-methylpyrimidin-2-yl)cyclopropyl)quinolin-4-ol] yielded an IC90 (plasma kallikrein) of 1.5 to 10 µM and an EC50 [1] of 0.001 to 0.01 µM.

`Cc1ccnc([C@H]2C[C@@H]2c2nc3cc(NCc4cn5cc(C6CC6)cc(N6CC(=O)N(C)C6=O)c5n4)ncc3c(=O)[nH]2)n1` (racemic) [Example 7, rac-1-(6-cyclopropyl-2-(((2-((1S*,2S*)-2-(4-methylpyrimidin-2-yl)cyclopropyl)-4-oxo-3,4-dihydropyrido[4,3-d]pyrimidin-7-yl)amino)methyl)imidazo[1,2-a]pyridin-8-yl)-3-methylimidazolidine-2,4-dione] gave an IC90 (plasma kallikrein) of 0.4 to 1.5 µM and an EC50 [1] of at most 0.001 µM.

For `Cc1ccnc(C2CC2c2cc(=O)c3ccc(NCc4cn5cc(C6CC6)cc(N6CC(=O)N(C)C6=O)c5n4)cc3[nH]2)n1` (single isomer, unassigned) [Example 12, 1-(6-cyclopropyl-2-(((2-(2-(4-methylpyrimidin-2-yl)cyclopropyl)-4-oxo-1,4-dihydroquinolin-7-yl)amino)methyl)imidazo[1,2-a]pyridin-8-yl)-3-methylimidazolidine-2,4-dione], the IC90 (plasma kallikrein) was 0.4 to 1.5 µM and the EC50 [1] was at most 0.001 µM.

With `COc1cc([C@H]2C[C@@H]2c2nccc(C)n2)nc2cc(NCc3cn4cc(C5CC5)cc(N5CC(=O)N(C)C5=O)c4n3)ccc12` (racemic) [Example 21, rac-1-(6-cyclopropyl-2-(((4-methoxy-2-((1S*,2S*)-2-(4-methylpyrimidin-2-yl)cyclopropyl)quinolin-7-yl)amino)methyl)imidazo[1,2-a]pyridin-8-yl)-3-methylimidazolidine-2,4-dione] the IC90 (plasma kallikrein) was 1.5 to 10 µM and the EC50 [1] was at most 0.001 µM.
